Reference: patent publication US20020012943A1, “ELECTROCHEMICAL PROBES FOR DETECTION OF MOLECULAR INTERACTIONS AND DRUG DISCOVERY” (priority 1997, published 2002)
Where no end group is shown, it is not given here. The star is where a group is joined. Biotin = O=C1N[C@H]2[C@H](CS[C@H]2CCCCC(=O)*)N1

Legend:
[1] = target: T1, GST-Src SH3 fusion protein (Homo sapiens, UniProt P12931); test: Cyclic voltammetry of electrochemically-labeled peptide binding to a GST-Src SH3 coated electrode; settings: for specific cyclic voltammetry signal at GST-Src SH3 electrode: electrochemically-labeled peptide plus mediator, described in present tense
T1 construct: made in house
Procedure: Tin-doped indium oxide electrodes were purchased (Delta Technologies) as 2 cm^2 square glass slides and prepared for use as follows. The electrode was cleaned by sonication treatment in a laboratory sonicator by sequential treatment in Alkonox, neat isopropyl alcohol, distilled and deionized water (three times), and finally the desired buffer; each sonication treatment having been performed for 10 min. The cleaned electrodes were then immersed in a 5 mM solution of 1,12-dodecadicarboxylic acid and incubated at room temperature for 48-72 hours, followed by rinsing the electrodes with hexane (Analytical grade).
(§1) Protein crosslinking to the prepared electrode was then performed as follows. A 50 μL aliquot of a 5 mM solution of 1-(3-dimethylaminopropyl)-3-ethylcarbodiimide was placed on one side of the electrode and dried at room temperature. […] of a 4 mg/mL solution of a fusion protein in phosphate buffered saline (PBS)/0.1% Tween 20 was placed on the surface of the dried electrode previously treated with carbodiimide and incubated at 4° C. overnight to allow crosslinking to proceed. After this incubation, electrodes were washed once with a solution of 100 mM Tris-HCl (pH8.0)/100 mM NaCl for 5 min. and kept in PBS at 4° C. until used.
(§2) Cyclic voltammograms were collected using an EG&G PAR 273A potentiostat/galvanostat with a single compartment voltammetric cell equipped with a modified tin-doped indium oxide (ITO) working electrode (area=0.32 cm^2), platinum (Pt)-wire counter electrode and silver/silver chloride (Ag/AgCl) reference electrode (see Johnston et al, 1994, Inorg. Chem. 33: 6388-6390). An example of such a voltammogram is shown in FIG. 7 and was generated under the following conditions. A sample containing 50 mM Ru(NH3)6^3+ and 20 mM Ru(NH3)5^3+-labeled peptide dissolved in buffered aqueous solutions containing 50 mM sodium phosphate buffer (pH 6.8)/700 mM NaCl (having a total sodium ion concentration of 780 mM) was scanned at a rate of 15 mV/s. After scans with the electrochemically labeled peptide, the electrode was rinsed with the same 50 mM sodium phosphate buffer solution, and then with 50 mM Ru(NH3)6^3+ or an unlabeled peptide solution containing 50 mM Ru(NH3)6^3+. Cyclic voltammograms were obtained with 50 mM Ru(NH3)6^3+ after washing. […] A freshly prepared electrode was used for each experiment and a background scan of buffer alone was collected for each electrode and subtracted from subsequent scans.
The electrochemical analysis apparatus and methods of the invention were used to detect and analyze the specific binding interaction between the Src SH3 domain and a specific binding SH3 peptide as follows. […]

streptavidin = streptavidin (Streptomyces avidinii, UniProt P22629); test: Cyclic voltammetry of electrochemically-labeled peptide binding to a streptavidin coated electrode; settings: electrochemically-labeled peptide plus mediator; described in present tense
Procedure: as §1, §2
Electrodes are prepared by coating with the GST-Src SH3 fusion protein described above or with streptavidin using the procedures described in Example 2. […]

MDM2 = MDM2 (Homo sapiens, UniProt Q00987); test: Cyclic voltammetry of electrochemically-labeled peptide binding to an MDM2 coated electrode; settings: electrochemically-labeled peptide plus mediator; described in present tense
Procedure: as §1
Cyclic voltammograms were collected using an EG&G PAR 273A potentiostat/galvanostat with a single compartment voltammetric cell equipped with a modified tin-doped indium oxide (ITO) working electrode (area=0.32 cm^2), platinum (Pt)-wire counter electrode and silver/silver chloride (Ag/AgCl) reference electrode (see Johnston et al, 1994, Inorg. Chem. 33: 6388-6390). An example of such a voltammogram is shown in FIG. 7 and was generated under the following conditions. A sample containing 50 mM Ru(NH3)6^3+ and 20 mM Ru(NH3)5^3+-labeled peptide dissolved in buffered aqueous solutions containing 50 mM sodium phosphate buffer (pH 6.8)/700 mM NaCl (having a total sodium ion concentration of 780 mM) was scanned at a rate of 15 mV/s. […]

src SH3 domain = target: T2, src SH3 domain (Homo sapiens, UniProt P12931); test: Chronoamperometry of SA/B-HRP conjugated surrogate ligand binding to a src SH3 hydrogel electrode; settings: 100 mV
T2 construct: The src SH3 domain was immobilized in a hydrogel as described above in Section A
Procedure: The electrochemical analytic methods and apparati of the invention are used to detect protein:peptide interactions in a complex mixture. A variety of different target molecules and purchased from Polysciences (Warrington, Pa.). The redox polymer poly(1-vinylimidazole), modified with Os bipyridine redox centers (PVI-Os) was synthesized as described by Ohara et al. (1993, Anal. Chem. 65: 3512-3517). Specifically, hydrogels were prepared by mixing together 5 μL of each of the following solutions: a solution of a first member of a biological binding pair, typically comprising a receptor protein or fragment at a concentration of 4-6 mg/mL protein; 10 mg/mL PVI-Os, and 2.5 mg/mL PEGDGE. A 1 μL aliquot of the mixture was then spread on the surface of the glassy carbon electrodes. The hydrogel coated electrodes were cured overnight at room temperature prior to use.
The src SH3 domain was immobilized in a hydrogel as described above in Section A. This electrode was then used for electrochemical detection of surrogate ligand binding using a surrogate ligand prepared as follows.
A complex of streptavidin (SA) (Sigma Chemical Co., St. Louis, Mo.), biotinylated horseradish peroxidase (B-HRP) (Sigma) and biotinylated src SH3 surrogate ligand (His-Gly-Ser-Gly-Ser-Phe-Ser-His-Pro-Gln-Asn-Thr; SEQ ID No. 2) was prepared as follows. […]

[2] = system: Tyrosine aminoacyl tRNA synthetase (tyrRS); test: Chronoamperometry of SA/B-HRP conjugated surrogate ligand binding to, and inhibitor displacement from, a tyrRS hydrogel electrode

streptavidin, sequence (P22629 25-183): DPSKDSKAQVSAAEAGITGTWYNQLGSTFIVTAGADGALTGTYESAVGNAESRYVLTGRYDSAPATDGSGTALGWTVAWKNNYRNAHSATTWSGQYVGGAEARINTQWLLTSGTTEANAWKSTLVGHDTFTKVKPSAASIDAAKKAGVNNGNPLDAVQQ
MDM2, sequence (Q00987 whole entry, species assumed): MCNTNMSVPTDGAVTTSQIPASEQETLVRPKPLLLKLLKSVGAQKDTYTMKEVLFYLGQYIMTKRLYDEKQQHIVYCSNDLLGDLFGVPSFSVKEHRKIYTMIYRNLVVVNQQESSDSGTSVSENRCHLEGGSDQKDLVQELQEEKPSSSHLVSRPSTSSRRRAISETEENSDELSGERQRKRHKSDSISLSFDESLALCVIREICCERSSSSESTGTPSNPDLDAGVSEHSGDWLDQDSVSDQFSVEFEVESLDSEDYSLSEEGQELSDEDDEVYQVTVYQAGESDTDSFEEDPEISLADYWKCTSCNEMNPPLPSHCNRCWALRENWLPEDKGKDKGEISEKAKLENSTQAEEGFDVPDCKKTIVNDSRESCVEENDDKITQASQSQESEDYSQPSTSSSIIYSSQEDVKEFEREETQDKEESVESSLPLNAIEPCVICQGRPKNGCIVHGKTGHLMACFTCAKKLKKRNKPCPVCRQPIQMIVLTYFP

Substance	specific cyclic voltammetry signal at GST-Src SH3 electrode [1]	specific cyclic voltammetry signal at streptavidin electrode (streptavidin)	other results
Biotin-HHSGSGSQTFSDLWKL [p53 peptide]	No specific interaction is detected	No specific interaction is detected	specific cyclic voltammetry signal at MDM2 electrode (MDM2): Specific signals are detected
HGSGSFSHPQNT [src SH3 surrogate ligand]			time at which current reaches plateau (src SH3 domain; 100 μM H2O2, ligand added at t=600 sec (FIG. 8)): 1500 to 2000 s; current upon addition of SA/B-HRP conjugated surrogate ligand (src SH3 domain; 100 μM H2O2, ligand added at t=600 sec to 1 μg/mL SA (FIG. 8)): an increase in current was detected
HGSGSFSHPQNT [streptavidin binding peptide]	no specific signal is detected	Specific signals are detected	
Gly-His-Gly-Ser-Gly-Arg-Ala-Leu-Pro-Pro-Leu-Pro-Arg-Tyr-NH2 (GHGSGRALPPLPRY-NH2) [NPDF-1]	Specific signals are detected	no specific signal is detected	integrated cyclic voltammetry signal, mediator background subtracted ([1]; GST-Src SH3 coated electrode compared with GST alone, Ru-labeled peptide, hexaamineruthenium(III) mediator, 2 hours incubation): much higher signal
LYSWPDEQYERPSGSGK [tyrRS surrogate ligand]			binding rate constant (first order) for the tyrRS-surrogate ligand binding reaction ([2]; from the single-exponential current rise of FIG. 9): 0.0012 s⁻¹; current upon addition of SA/B-HRP conjugated surrogate ligand ([2]; tyrRS hydrogel electrode, conditions as for src SH3 (FIG. 9)): current was detected
